PMC7269032, “Chiral 4-O-acylterpineol as transdermal permeation enhancers: insights of the enhancement mechanisms of a transdermal enantioselective delivery system for flurbiprofen” (Drug Delivery, 2020)

Test: In vitro permeation experiment of FP drug-in-adhesive patches in two-chamber diffusion cells
Type: in vitro ADME, rabbit
Settings: for ER (Q24h with enhancer/Q24h without enhancer) for R-FP / Tlag of R-FP / Js of R-FP: permeant R-FP; for ER (Q24h with enhancer/Q24h without enhancer) for R-FP / Tlag of R-FP / Js of R-FP / ER (Q24h with enhancer/Q24h without enhancer) for S-FP / Tlag of S-FP / Js of S-FP / ER (Q24h with enhancer/Q24h without enhancer) for SR-FP / Tlag of SR-FP / Js of SR-FP: patch 5% drug (w/w); for ER (Q24h with enhancer/Q24h without enhancer) for R-FP / ER (Q24h with enhancer/Q24h without enhancer) for S-FP / ER (Q24h with enhancer/Q24h without enhancer) for SR-FP: enhancer equimolar to 5% 4-TER; for Tlag of R-FP / Js of R-FP / Tlag of S-FP / Js of S-FP / Tlag of SR-FP / Js of SR-FP: enhancer equimolar to 5% 4-TER (control: no enhancer); for Js of R-FP / Js of S-FP / Js of SR-FP: mean ± SD, n = 4; for ER (Q24h with enhancer/Q24h without enhancer) for S-FP / Tlag of S-FP / Js of S-FP: permeant S-FP; for ER (Q24h with enhancer/Q24h without enhancer) for SR-FP / Tlag of SR-FP / Js of SR-FP: permeant SR-FP
Excerpt: Male, Japanese big-eared rabbits weighting 2.5–3.0 kg were purchased from the animal experimental center of North China University of Science and Technology. The experimental process was in accordance with the ‘Ethical Guide for Laboratory Animal Investigation’ and was approved by the Animal Experimental Center Committee of North China University of Science and Technology. All efforts were made to minimize animal suffering and to limit the number of animals used.
The hair of back skin was removed by clipper and electrical shaver carefully when the rabbits were anesthetized with ether. Full thickness of back skin was excised after the rabbit was sacrificed by injecting air into the ear veins, and the subcutaneous fat tissue was carefully removed using the surgical scissor and scalpel. The integrity of the skin was confirmed by microscopic observation method. The treated rabbit skin was cut into a size of 1.5 cm × 1.5 cm and stored at –80 °C until use. Before use, it needed to be immersed in physiological saline for 20 min to thaw.
Drug-in-adhesive patch (drug loading of 5% by adhesive) was prepared by using solvent evaporation method. An appropriate amount of FP was dissolved in a suitable amount of ethyl acetate, which was later added to the adhesive and mixed thoroughly with a mechanical stirrer. The resulting solution was coated onto release liner (Scotch Pak® 9744, 3M, USA) by using lab coating unit (6025, BLD Instruments Co. Ltd., Guangdong, China). The coated laminate was dried at 50 °C for 15 min. After the solvent had been removed, it was covered with backing laminate (Scotch Pak® 9732, 3M).
Modified two-chamber diffusion cells with an effective diffusion area of 0.95 cm^2 were employed in the in vitro permeation experiment. The cells were kept at 32 °C by the circulated water bath and stirred with magnetic bars at 400 rpm. The dermis side of the skin was attached to one-half of the side-by-side diffusion cells, the FP patch was pressed on the skin with the adhesive side facing the SC, and pH 7.4 PBS was used as the receptor medium. At predetermined time points (2, 4, 6, 8, 10, 12 and 24 h), the receptor solution of 2.0 mL was withdrawn and equal volume PBS was added to maintain a constant volume of receptor solution.
The cumulative amount of each drug permeating per unit area (Q) versus time was plotted. Q24h=(3.5Ci+2.0∑i=1n−1Ci−1)/A
Q was the cumulative skin permeation amount. Ci was the concentration in the receiver compartment at time i, A was the effective diffusion area of diffusion.
The steady-state flux (Js, µg/cm^2/h) was calculated from the slope of linear region of the plot. The lag-time was determined by extrapolating the linear portion of the curve to the abscissa. Js=dQr/Adt
Enhancement ratio (ER) was used to evaluate the activity of the enhancers, which is the ratio of Q24h with enhancer to Q24h without enhancer. ER=Q24h(with enhancer)/Q24h(without enhancer)

| Structure (SMILES) | ER (Q24h with enhancer/Q24h without enhancer) for R-FP | Tlag of R-FP [h] | Js of R-FP [μg/cm^2/h] | ER (Q24h with enhancer/Q24h without enhancer) for S-FP | Tlag of S-FP [h] | Js of S-FP [μg/cm^2/h] | ER (Q24h with enhancer/Q24h without enhancer) for SR-FP | Tlag of SR-FP [h] | Js of SR-FP [μg/cm^2/h] | cumulative transport of SR-FP at 24 h (3% enhancer level (w/w)) [μg/cm^2] | cumulative transport of SR-FP at 24 h (5% enhancer level (w/w)) [μg/cm^2] |
| --- | --- | --- | --- | --- | --- | --- | --- | --- | --- | --- | --- |
| CCCCCCC(=O)OC1(C(C)C)CC=C(C)CC1 (stereo not drawn) [l-4-T-C7, l-4-methyl-1-(1-methylethyl)-3-cyclohexen-1-yl heptanoate] | 1.38 | 2.11 | 3.19 ± 0.47 | 1.10 | 4.18 | 3.00 ± 0.69 | 1.35 | 2.96 | 6.58 ± 1.41 | – | – |
| CCCCCCCCCCCCCC(=O)OC1(C(C)C)CC=C(C)CC1 (stereo not drawn) [l-4-T-C14, l-4-methyl-1-(1-methylethyl)-3-cyclohexen-1-yl tetradecanoate] | 2.92 | 3.51 | 7.62 ± 1.49 | 2.73 | 3.37 | 6.80 ± 0.50 | 1.92 | 2.45 | 11.83 ± 6.27 | – | – |
| CC1=CC[C@@](O)(C(C)C)CC1 [l-4-TER, l-4-terpineol, reference compound] | 2.64 | 3.82 | 6.99 ± 1.12 | 2.25 | 4.07 | 6.02 ± 0.99 | 1.81 | 3.13 | 11.43 ± 2.06 | 145.16 ± 13.64 | 222.09 ± 19.19 |
| CCCCCCCCCCCCCC(=O)OC1(C(C)C)CC=C(C)CC1 (stereo not drawn) [d-4-T-C14, d-4-methyl-1-(1-methylethyl)-3-cyclohexen-1-yl tetradecanoate] | 3.19 | 3.98 | 8.16 ± 0.84 | 3.53 | 2.04 | 7.75 ± 1.68 | 2.85 | 3.58 | 18.79 ± 3.81 | – | – |
| CCCCCCC(=O)OC1(C(C)C)CC=C(C)CC1 (stereo not drawn) [d-4-T-C7, d-4-methyl-1-(1-methylethyl)-3-cyclohexen-1-yl heptanoate] | 1.96 | 2.40 | 4.40 ± 1.42 | 1.69 | 2.91 | 4.39 ± 0.49 | 2.14 | 3.74 | 14.46 ± 1.52 | – | – |
